The text below walks through data of patent publication US20130018061A1, “Method for Improving Exercise and Recovery From Exercise” (priority 2011, published 2013).

For series [1] the following is noted: 50 mg or 200 mg after cycling exercise, fourteen healthy male subjects; cited from earlier work.
For series [2] the following is noted: Study 2; effects typically experienced with high amounts of caffeine.
Procedure: In this first study, twenty-one subjects (20 male, 1 female), all healthy and between the ages of 20 and 35 years were given the pre-workout supplement in capsule form to be taken 30 to 45 minutes before exercise on an empty stomach in place of any regularly consumed pre-workout product prior to the next exercise session. Subjects were instructed to maintain normal diet and activity. Subjects were surveyed for ratings of perceived effects on energy levels and mental focus. Subjects were also advised to supply general comments regarding the supplement in terms of negative side effects, comparison to other products, overall satisfaction and effectiveness.
The conditions of series [3]: 250 mg caffeine, 200 mg L-theanine, or both; cited from earlier work.
The conditions of series [4]: absorbed in the small intestine; cited from earlier work.

A value given as a limit tells only on which side of the number the result lay.

As for `CCNC(=O)CC[C@H](N)C(=O)O` [L-theanine, γ-N-ethylglutamine], in series [1], the post-exercise mental regeneration entry is listed as “accelerated post-exercise mental regeneration”. The “jitters and energy crash” value in series [2] was “prevented jitters and the energy crash”. In addition, in series [3], the “effect on alertness, anxiety and blood pressure” value is on record as “only acted to counter the increase in blood pressure”. In series [4], the “time of peak plasma levels” value was at most 30 min.
In the case of `Cn1c(=O)c2c(ncn2C)n(C)c1=O` [caffeine, 1,3,7-trimethylxanthine], the “effect on alertness, anxiety and blood pressure” value in series [3] is “increased alertness, anxiety, and blood pressure”.
